{
  "source": "patent EP0466030B1",
  "about": "“N-acyl dipeptides and their use” (DEGUSSA AG, priority 1990, dated 1992)",
  "key": {"[1]": {"conditions": "Ratten; Z. Ernährungswiss. 28 (1989), 32 - 35; cited from earlier work"}, "[2]": {"test_system": "L1210 Mäuse-Leukaemiezellen", "experiment": "Comparative cell growth experiment with supplemented culture medium", "type": "cell-based", "conditions": "for Zellwachstum: comparison among the three supplements L-Glutamin, L-Alanyl-L-glutamin, N-Acetyl-L-alanyl-L-glutamin; for Wachstum im Vergleich zum glutaminfreien Medium: supplemented medium versus glutamine-free medium", "excerpt": "Weiterhin wurde überraschend festgestellt, daß N-Acyldipeptide als Quelle für die C-terminalen Aminosäuren in Nährmedien für Zellkulturen dienen können."}, "[3]": {"experiment": "Cleavage of the substrate by pig kidney homogenate (decrease of substrate followed by HPLC)", "type": "in vitro ADME, Schwein", "conditions": "for spezifische Aktivität des Nierenhomogenisats: 1 ml supernatant + 1 ml 0,1 M Tris/HCl (pH 7) + 1 ml 30 mM substrate solution, 37°C, HPLC; for schneller als N-Acetyl-L-tyrosin gespalten: in vitro, Schweinenierenhomogenisat, rate relative to N-Acetyl-L-tyrosin", "description": "0,1 Mol L-Alanyl-L-tyrosin wurden in 50 ml 2N Natronlauge gelöst. Bei 0°C wurden 0,11 Mol Acetanhydrid in 18 ml Tetrahydrofuran und 27,5 ml 4N Natronlauge so zugetropft, daß der pH-Wert des Reaktionsgemisches stets bei etwa 11 lag. Nach Beendigung der Zugabe wurde 1 Stunde lang nachgerührt, dann mit konzentrierter Salzsäure auf pH 1 angesäuert und das Volumen der Lösung auf die Hälfte eingeengt. Das N-Acetyl-L-alanyl-L-tyrosin kristallisierte aus, wurde abfiltriert, mit Wasser gewaschen und getrocknet. […] 1 ml des nach 30-minütiger Zentrifugation bei 10000 U/min erhaltenen Überstandes wurden mit 1 ml 0,1 M Tris/HCl (pH 7)-Puffer und 1 ml einer 30 mM Lösung des Substrates in 0,1 M Tris/HCl (pH7)-Puffer versetzt und bei 37°C inkubiert. Die zeitliche Abnahme der Substratkonzentration wurde durch HPLC verfolgt."}, "[4]": {"test_system": "L1210 Mäuse-Leukaemiezellen", "conditions": "general statement on cells, no source or experiment given; cited from earlier work"}},
  "note": "Where a SMILES comes first, the peptide text is derived from it. Bridges are numbered along the chain shown (N, C = ends). Roman numbers before positions name the chains, in order. The star is where a group is joined. Butyryl = CCCC(=O)*",
  "data": [
    {"smiles": "CC(=O)NCC(=O)N[C@@H](CSSC[C@H](NC(=O)CNC(C)=O)C(=O)O)C(=O)O", "note": "[Bis-(acetylglycyl)-L,L-cystin] (I: Ac-Gly-Cys-OH / II: Ac-Gly-Cys-OH; disulfide I:2-II:2)", "values": [
      {"measurement": "Eignung als Cysteinquelle bei der parenteralen Ernährung", "setting": "[1]", "value": "nicht als Cysteinquelle geeignet"}
    ]},
    {"smiles": "C[C@H](N)C(=O)N[C@@H](CCC(N)=O)C(=O)O", "note": "[L-Alanyl-L-glutamin] (H-Ala-Gln-OH)", "values": [
      {"measurement": "Zellwachstum", "setting": "[2]", "value": "kein signifikanter Unterschied"},
      {"measurement": "Wachstum im Vergleich zum glutaminfreien Medium", "setting": "[2]", "value": "deutlich erhöhtes Wachstum"}
    ]},
    {"smiles": "NC(=O)CC[C@H](N)C(=O)O", "note": "[L-Glutamin]", "values": [
      {"measurement": "Zellwachstum", "setting": "[2]", "value": "kein signifikanter Unterschied"},
      {"measurement": "Wachstum im Vergleich zum glutaminfreien Medium", "setting": "[2]", "value": "deutlich erhöhtes Wachstum"}
    ]},
    {"smiles": "CC(=O)N[C@@H](C)C(=O)N[C@@H](CCC(N)=O)C(=O)O", "note": "[N-Acetyl-L-alanyl-L-glutamin] (Ac-Ala-Gln-OH)", "values": [
      {"measurement": "Zellwachstum", "setting": "[2]", "value": "kein signifikanter Unterschied"},
      {"measurement": "Wachstum im Vergleich zum glutaminfreien Medium", "setting": "[2]", "value": "deutlich erhöhtes Wachstum"},
      {"measurement": "von den Zellen verwertet", "setting": "[2]; utilisation by L1210 cells as glutamine source", "value": "sehr gut verwertet"}
    ]},
    {"smiles": "CC(=O)N[C@@H](C)C(=O)N[C@@H](Cc1ccc(O)cc1)C(=O)O", "note": "[N-Acetyl-L-alanyl-L-tyrosin] (Ac-Ala-Tyr-OH)", "values": [
      {"measurement": "spezifische Aktivität des Nierenhomogenisats", "setting": "[3]", "value": "420 nMol pro Minute und g Niere"},
      {"measurement": "schneller als N-Acetyl-L-tyrosin gespalten", "setting": "[3]", "value": 10, "unit": "mal"}
    ]},
    {"smiles": "CC(=O)N[C@@H](CCC(N)=O)C(=O)O", "note": "[N-Acetyl-L-glutamin]", "values": [
      {"measurement": "von Zellen genutzt", "setting": "[4]", "value": "nicht oder nur sehr schlecht genutzt"}
    ]},
    {"smiles": "CCCC(=O)N[C@@H](C)C(=O)N[C@@H](Cc1ccc(O)cc1)C(=O)O", "note": "[N-Butyryl-L-alanyl-L-tyrosin] (Butyryl-Ala-Tyr-OH)", "values": [
      {"measurement": "spezifische Aktivität des Nierenhomogenisats", "setting": "[3]", "value": "660 nMol pro Minute und g Niere"},
      {"measurement": "schneller als N-Acetyl-L-tyrosin gespalten", "setting": "[3]", "value": 15, "unit": "mal"}
    ]}
  ]
}
